Literature values as cited in patent US6103487A, “Method of treating cancer” (Merck & Co., Inc., priority 1998, dated 2000).

Experiments:
[1] = tested on: farnesyl-protein transferase; conditions: by inhibiting HMG-CoA reductase
Ras = conditions: inhibits the rate-limiting step in the isoprenoid biosynthetic pathway; positive control

Structure (SMILES) | Indirect inhibition of farnesyl-protein transferase in vivo [1] | block of Ras processing in cells (Ras)
CC[C@H](C)C(=O)O[C@H]1CCC=C2C=C[C@H](C)[C@H](CC[C@@H]3C[C@@H](O)CC(=O)O3)[C@H]21 [compactin] | Indirect inhibition of farnesyl-protein transferase in vivo has been demonstrated | 
CC[C@H](C)C(=O)O[C@H]1C[C@@H](C)C=C2C=C[C@H](C)[C@H](CC[C@@H]3C[C@@H](O)CC(=O)O3)[C@H]21 [lovastatin] | Indirect inhibition of farnesyl-protein transferase in vivo has been demonstrated | blocks Ras processing in cells
